In brackets after ≈: the same amount, converted by molar mass. Like-named read-outs stand apart in the source and are kept apart here.
Legend:
Assay in all cases: Anti-bacterial activity (MIC), agar dilution
Type in all cases: cell-based
[1] = system: Morganella morganii EP-14; conditions: 37° C.
Protocol: (§1) MIC (μg/ml) were determined by an agar dilution method [Chemotherapy (Japan), 29, 76-79, 1981]. Overnight cultures of the bacterial strains in Mueller-Hinton broth were diluted to final concentration of about 10^6 CFU/ml, and 5 μl of each bacterial suspension was spotted onto Mueller-Hinton agar plates that contained twofold serial dilutions of antibiotics. MICs were measured after incubation for 18 hours at 37° C.

Ser. marcescens ES-75 = system: Ser. marcescens ES-75
Protocol: as §1

Escher. coli NIHJ = system: Escher. coli NIHJ
Protocol: as §1

Kleb. pneumoniae EK-6 = conditions: Kleb. pneumoniae EK-6, agar dilution, about 10^6 CFU/ml, 18 hours, 37° C.
Protocol: as §1

Staph. aureus 209-P = system: Staph. aureus 209-P
Protocol: as §1

Pseud. aeruginosa EP-01 = system: Pseud. aeruginosa EP-01
Protocol: as §1

[2] = Ser. marcescens ES-75, agar dilution, about 10^6 CFU/ml, 18 hours, 37° C.
[3] = Escherichia coli, 18 h, Escher. coli NIHJ, agar dilution, about 10^6 CFU/ml, 18 hours, 37° C., read-out: MIC
[4] = Staph. aureus 209-P, agar dilution, about 10^6 CFU/ml, 18 hours, 37° C.
[5] = Pseudomonas aeruginosa, EP01, 18 h, Pseud. aeruginosa EP-01, agar dilution, about 10^6 CFU/ml, 18 hours, 37° C., read-out: MIC
[6] = Escher. coli NIHJ, agar dilution, about 10^6 CFU/ml, 18 hours, 37° C.
[7] = Pseud. aeruginosa EP-01, agar dilution, about 10^6 CFU/ml, 18 hours, 37° C.
[8] = Morganella morganii, EP14, 18 h, about 10^6 CFU/ml, read-out: MIC
[9] = Serratia marcescens, ES75, 18 h, Ser. marcescens ES-75, agar dilution, about 10^6 CFU/ml, 18 hours, 37° C., read-out: MIC
[10] = Klebsiella pneumoniae, EK6, 18 h, read-out: MIC
[11] = Staphylococcus aureus, 209P, 18 h, Staph. aureus 209-P, agar dilution, about 10^6 CFU/ml, 18 hours, 37° C., read-out: MIC
[12] = Serratia marcescens, ES75, 18 h
[13] = Staphylococcus aureus, 209P, 18 h

| MIC (Escher. coli NIHJ; [3]) [mg/L] | MIC (Pseud. aeruginosa EP-01; [5]) [mg/L] | MIC [1, 8] [mg/L] | MIC (Ser. marcescens ES-75; [9]) [mg/L] | MIC (Kleb. pneumoniae EK-6; [10]) [mg/L] | MIC (Staph. aureus 209-P; [11]) [mg/L] | SMILES | MIC ([1]; about 10^6 CFU/ml, 18 hours) [mg/L] | MIC (Ser. marcescens ES-75; [2]) [mg/L] | MIC (Kleb. pneumoniae EK-6) [mg/L] | MIC (Staph. aureus 209-P; [4]) [mg/L] | MIC (Escher. coli NIHJ; [6]) [mg/L] | MIC (Pseud. aeruginosa EP-01; [7]) [mg/L] | other results |
| --- | --- | --- | --- | --- | --- | --- | --- | --- | --- | --- | --- | --- | --- |
| – | – | – | – | – | – | C[N+]1(C/C=C/C2=C(C(=O)[O-])N3C(=O)[C@@H](NC(=O)/C(=N\OCF)c4nsc(N)n4)[C@H]3SC2)C[C@H](O)C[C@@H]1CO (single isomer, unassigned) [Example 6-2, 7β-[2-(5-Amino-1,2,4-thiadiazol-3-yl)-(Z)-2-fluoromethoxyiminoacetamido]-3-[(E)-3-(4R-hydroxy-2R-hydroxymethyl-1-methyl-1-pyrrolidinio)-1-propen-1-yl]-3-cephem-4-carboxylate] | ≤ 0.025 | ≤ 0.025 | ≤ 0.025 | 0.1 (≈ 0.175 µM) | ≤ 0.025 | 0.8 (≈ 1.4 µM) | – |
| – | – | – | – | – | – | CC(C(N)=O)[N+]1(C/C=C/C2=C(C(=O)[O-])N3C(=O)[C@@H](NC(=O)/C(=N\OCF)c4nsc(N)n4)[C@H]3SC2)CCCC1 (single isomer, unassigned) [Example 13-2] | 0.05 (≈ 0.0858 µM) | 0.05 (≈ 0.0858 µM) | ≤ 0.025 | 0.2 (≈ 0.343 µM) | ≤ 0.025 | 1.56 (≈ 2.68 µM) | – |
| ≤ 0.025 | 1.56 (≈ 2.66 µM) | ≤ 0.025 | ≤ 0.025 | ≤ 0.025 | 0.2 (≈ 0.342 µM) | Nc1nc(/C(=N/OCF)C(=O)N[C@@H]2C(=O)N3C(C(=O)[O-])=C(/C=C/C[N+]4(CC(O)CO)CCCC4)CS[C@H]23)ns1 (single isomer, unassigned) [Example 23-1] | – | – | – | – | – | – | – |
| – | – | – | – | – | – | Nc1nc(/C(=N/OCF)C(=O)N[C@@H]2C(=O)N3C(C(=O)[O-])=C(/C=C/C[N+]4(CC(O)CO)CCCC4)CS[C@H]23)ns1 (single isomer, unassigned) [Example 23-2] | 0.05 (≈ 0.0854 µM) | ≤ 0.025 | ≤ 0.025 | 0.2 (≈ 0.342 µM) | 0.05 (≈ 0.0854 µM) | 1.56 (≈ 2.66 µM) | – |
| ≤ 0.025 | 0.8 (≈ 1.48 µM) | ≤ 0.025 | ≤ 0.025 | ≤ 0.025 | 0.2 (≈ 0.37 µM) | CN1CCC[N+]1(C)C/C=C/C1=C(C(=O)[O-])N2C(=O)[C@@H](NC(=O)/C(=N\OCF)c3nsc(N)n3)[C@H]2SC1 (single isomer, unassigned) [Example 122-A, 7β-[2-(5-Amino-1,2,4-thiadiazol-3-yl)-(Z)-2-fluoromethoxyiminoacetamido]-3-[(E)-3-(1,2-dimethyl-1-pyrazolidinio)-1-propen-1-yl]-3-cephem-4-carboxylate] | – | – | – | – | – | – | – |
| – | – | – | – | – | – | CN1CCC[N+]1(C)C/C=C/C1=C(C(=O)[O-])N2C(=O)[C@@H](NC(=O)/C(=N\OCF)c3nsc(N)n3)[C@H]2SC1 (single isomer, unassigned) [Example 122-B, 7β-[2-(5-Amino-1,2,4-thiadiazol-3-yl)-(Z)-2-fluoromethoxyiminoacetamido]-3-[(E)-3-(1,2-dimethyl-1-pyrazolidinio)-1-propen-1-yl]-3-cephem-4-carboxylate] | ≤ 0.025 | 0.05 (≈ 0.0925 µM) | ≤ 0.025 | 0.1 (≈ 0.185 µM) | ≤ 0.025 | 0.8 (≈ 1.48 µM) | – |
| ≤ 0.025 | 0.8 (≈ 1.46 µM) | 0.05 (≈ 0.0913 µM) | 0.1 (≈ 0.183 µM) | ≤ 0.025 | 0.1 (≈ 0.183 µM) | CN1CCC[N+]1(C)C/C=C/C1=C(C(=O)[O-])N2C(=O)[C@@H](NC(=O)/C(=N\OCC#N)c3nsc(N)n3)[C@H]2SC1 (single isomer, unassigned) [Example 160-A] | – | – | – | – | – | – | – |
| – | – | – | – | – | – | CN1CCC[N+]1(C)C/C=C/C1=C(C(=O)[O-])N2C(=O)[C@@H](NC(=O)/C(=N\OCC#N)c3nsc(N)n3)[C@H]2SC1 (single isomer, unassigned) [Example 160-B] | 0.05 (≈ 0.0913 µM) | 0.2 (≈ 0.365 µM) | 0.05 (≈ 0.0913 µM) | 0.1 (≈ 0.183 µM) | 0.05 (≈ 0.0913 µM) | 0.8 (≈ 1.46 µM) | – |
| 0.1 (≈ 0.19 µM) | > 100 | 0.2 (≈ 0.38 µM) | 6.25 (≈ 11.9 µM) | 0.1 (≈ 0.19 µM) | 0.2 (≈ 0.38 µM) | CN(C)CCn1nnnc1SCC1=C(C(=O)O)N2C(=O)[C@@H](NC(=O)Cc3csc(N)n3)[C@H]2SC1 [CTM, Cefotiam, reference compound] | – | – | – | – | – | – | – |
| – | – | – | – | – | – | CC[N+](C)(C/C=C/C1=C(C(=O)[O-])N2C(=O)[C@@H](NC(=O)/C(=N\OCF)c3nsc(N)n3)[C@H]2SC1)CC(N)=O (stereo partly drawn) [Example 1, 7β-[2-(5-Amino-1,2,4-thiadiazol-3-yl)-(Z)-2-fluoromethoxyiminoacetamido]-3-[(E)-3-(carbamoylmethylethylmethylammonio)-1-propen-1-yl]-3-cephem-4-carboxylate] | – | – | – | – | – | – | MIC ([1]; EP14, about 10^6 CFU/ml, 18 hours, read-out: MIC): ≤ 0.025 mg/L; MIC (Ser. marcescens ES-75; [12]): 0.1 mg/L (≈ 0.18 µM); MIC (Escher. coli NIHJ; Escherichia coli, 18 h): ≤ 0.025 mg/L; MIC (Kleb. pneumoniae EK-6; Klebsiella pneumoniae, EK6, read-out: MIC): ≤ 0.025 mg/L; MIC (Staph. aureus 209-P; [13]): 0.2 mg/L (≈ 0.359 µM); MIC (Pseud. aeruginosa EP-01; Pseudomonas aeruginosa, EP01, Pseud. aeruginosa EP-01, agar dilution, about 10^6 CFU/ml, 18 hours, 37° C., read-out: MIC): 0.8 mg/L (≈ 1.44 µM) |
| 0.05 (≈ 0.092 µM) | 0.8 (≈ 1.47 µM) | 0.05 (≈ 0.092 µM) | 0.1 (≈ 0.184 µM) | ≤ 0.025 | 0.4 (≈ 0.736 µM) | CC(O)C[N+](C)(C)C/C=C/C1=C(C(=O)[O-])N2C(=O)[C@@H](NC(=O)/C(=N\OCF)c3nsc(N)n3)[C@H]2SC1 (stereo partly drawn) [Example 4, 7β-[2-(5-Amino-1,2,4-thiadiazol-3-yl)-(Z)-2-fluoromethoxyiminoacetamido]-3-[(E)-3-[(2-hydroxypropyl)dimethylammonio]-1-propen-1-yl]-3-cephem-4-carboxylate] | – | – | – | – | – | – | – |
| ≤ 0.025 | 0.8 (≈ 1.4 µM) | ≤ 0.025 | ≤ 0.025 | ≤ 0.025 | 0.2 (≈ 0.35 µM) | C[N+]1(C/C=C/C2=C(C(=O)[O-])N3C(=O)[C@@H](NC(=O)/C(=N\OCF)c4nsc(N)n4)[C@H]3SC2)C[C@H](O)C[C@H]1CO (stereo partly drawn) [Example 8, 7β-[2-(5-Amino-1,2,4-thiadiazol-3-yl)-(Z)-2-fluoromethoxyiminoacetamido]-3-[(E)-3-(4R-hydroxy-2S-hydroxymethyl-1-methyl-1-pyrrolidinio)-1-propen-1-yl]-3-cephem-4-carboxylate] | – | – | – | – | – | – | – |
| – | – | – | – | – | – | NC(=O)C[N+]1(C/C=C/C2=C(C(=O)[O-])N3C(=O)[C@@H](NC(=O)/C(=N\OCF)c4nsc(N)n4)[C@H]3SC2)CCC(O)C1 (stereo partly drawn) [Example 9-2, 7β-[2-(5-Amino-1,2,4-thiadiazol-3-yl)-(Z)-2-fluoromethoxyiminoacetamido]-3-[(E)-3-(1-carbamoylmethyl-3-hydroxy-1-pyrrolidinio)-1-propen-1-yl]-3-cephem-4-carboxylate] | ≤ 0.025 | ≤ 0.025 | ≤ 0.025 | 0.4 (≈ 0.684 µM) | ≤ 0.025 | 0.8 (≈ 1.37 µM) | – |
| – | 1.56 (≈ 2.83 µM) | 0.1 (≈ 0.182 µM) | 0.05 (≈ 0.0908 µM) | 0.05 (≈ 0.0908 µM) | 0.4 (≈ 0.726 µM) | C[C@@H](CO)[N+](C)(C)C/C=C/C1=C(C(=O)[O-])N2C(=O)[C@@H](NC(=O)/C(=N\OCC#N)c3nsc(N)n3)[C@H]2SC1 [Example 148] | – | – | – | – | – | – | – |

| SMILES | MIC (Escher. coli NIHJ; [3]) [mg/L] | MIC (Pseud. aeruginosa EP-01; [5]) [mg/L] | MIC [1, 8] [mg/L] | MIC (Ser. marcescens ES-75; [9]) [mg/L] | MIC (Kleb. pneumoniae EK-6; [10]) [mg/L] | MIC (Staph. aureus 209-P; [11]) [mg/L] | MIC ([1]; about 10^6 CFU/ml, 18 hours) [mg/L] | MIC (Ser. marcescens ES-75; [2]) [mg/L] | MIC (Kleb. pneumoniae EK-6) [mg/L] | MIC (Staph. aureus 209-P; [4]) [mg/L] | MIC (Escher. coli NIHJ; [6]) [mg/L] | MIC (Pseud. aeruginosa EP-01; [7]) [mg/L] | other results |
| --- | --- | --- | --- | --- | --- | --- | --- | --- | --- | --- | --- | --- | --- |
| NC(=O)C1CC[N+](C/C=C/C2=C(C(=O)[O-])N3C(=O)[C@@H](NC(=O)/C(=N\OCF)c4nsc(N)n4)[C@H]3SC2)(CCO)CC1 (single isomer, unassigned) [Example 2-2, 7β-[2-(5-Amino-1,2,4-thiadiazol-3-yl)-(Z)-2-fluoromethoxyiminoacetamido]-3-[(E)-3-[1-(2-hydroxyethyl)-4-carbamoyl-1-piperidinio]-1-propen-1-yl]-3-cephem-4-carboxylate] | ≤ 0.025 | 1.56 (≈ 2.55 µM) | – | – | – | – | ≤ 0.025 | ≤ 0.025 | ≤ 0.025 | 0.4 (≈ 0.653 µM) | – | – | – |
| Nc1nc(/C(=N/OCF)C(=O)N[C@@H]2C(=O)N3C(C(=O)[O-])=C(/C=C/C[N+]4(CCO)C[C@H](O)C[C@H]4CO)CS[C@H]23)ns1 (single isomer, unassigned) [Example 7-1, 7β-[2-(5-Amino-1,2,4-thiadiazol-3-yl)-(Z)-2-fluoromethoxyiminoacetamido]-3-[(E)-3-[4R-hydroxy-1-(2-hydroxyethyl)-2S-hydroxymethyl-1-pyrrolidinio]-1-propen-1-yl]-3-cephem-4-carboxylate] | ≤ 0.025 | 0.8 (≈ 1.33 µM) | ≤ 0.025 | ≤ 0.025 | ≤ 0.025 | 0.2 (≈ 0.332 µM) | – | – | – | – | – | – | – |
| CC(C)(O/N=C(\C(=O)N[C@@H]1C(=O)N2C(C(=O)[O-])=C(C[n+]3ccccc3)CS[C@H]12)c1csc(N)n1)C(=O)O [CAZ, Cefatazidime, reference compound] | 0.2 (≈ 0.366 µM) | – | 0.1 (≈ 0.183 µM) | – | 0.1 (≈ 0.183 µM) | – | – | – | – | – | – | – | MIC (Ser. marcescens ES-75; [12]): 0.2 mg/L (≈ 0.366 µM); MIC (Staph. aureus 209-P; [13]): 6.25 mg/L (≈ 11.4 µM); MIC (Pseud. aeruginosa EP-01; Pseudomonas aeruginosa, EP01, 18 h): 1.56 mg/L (≈ 2.85 µM) |
